Results as given in patent US8633245B2, “PAI-1 inhibitor” (Institute of Medicinal Molecular Design, Inc., priority 2008, dated 2014).
Like-named read-outs stand apart in the source and are kept apart here.

Molecular target: T1, recombinant human PAI-1 (Homo sapiens, UniProt P05121)
T1 construct: purchased Molecular Innovations, Inc
Experiment: Test Example 2: human PAI-1 inhibitory activity (tPA fluorogenic substrate, pH 7.4 HEPES buffer)
Assay type: biochemical
Conditions: for inhibition at 3 µM: read-out: Inhibition Rate of PAI-1 Activity (%)
Protocol: 0.1 M HEPES, 0.1 M NaCl. 1 mM EDTA. 0.1% Polyethylene glycol 8,000 (Hampton Research Corporation),
2 mM Dimethyldecylphoshine oxide [Apo-10] (Fluka Corporation)

[1] = human PAI-1, calculated from the inhibition rates
[2] = human PAI-1, compound concentration 0.1 μM
[3] = human PAI-1, compound concentration 0.3 μM
[4] = human PAI-1, compound concentration 1 μM
[5] = human PAI-1, compound concentration 3 μM
[6] = human PAI-1, compound concentration 10 μM
[7] = human PAI-1, compound concentration 25 μM

T1 sequence (P05121 24-402): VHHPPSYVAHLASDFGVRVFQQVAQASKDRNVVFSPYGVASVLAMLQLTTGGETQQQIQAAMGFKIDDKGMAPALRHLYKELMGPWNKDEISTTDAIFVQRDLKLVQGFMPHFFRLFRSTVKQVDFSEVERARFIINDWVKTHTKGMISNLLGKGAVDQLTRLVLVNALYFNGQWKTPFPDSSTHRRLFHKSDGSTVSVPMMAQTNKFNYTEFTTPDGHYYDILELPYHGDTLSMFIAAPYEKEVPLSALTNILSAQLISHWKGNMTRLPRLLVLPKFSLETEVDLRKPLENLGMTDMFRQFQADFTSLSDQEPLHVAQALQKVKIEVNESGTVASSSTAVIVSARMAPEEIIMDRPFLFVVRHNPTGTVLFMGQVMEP

SMILES | Inhibition Rate of PAI-1 Activity (%) [2] [%] | Inhibition Rate of PAI-1 Activity (%) [3] [%] | Inhibition Rate of PAI-1 Activity (%) [4] [%] | Inhibition Rate of PAI-1 Activity (%) [5] [%] | other results
O=C(O)C(=O)N(CCCCc1ccccc1)c1cc(-c2ccc(OC(F)(F)F)cc2)ccc1OCCCCc1ccccc1 [Compound 354] | – | – | – | – | IC50 [1]: 560 nM
O=C(O)COc1ccc(-c2ccc(OC(F)(F)F)cc2)cc1Oc1ccc(OCc2ccccc2)cc1 [Compound 492] | 5 | 20 | >99 | >99 | –
CN(C(=O)c1ccc(OC(F)(F)F)cc1)c1ccc(OCc2ccc(C(C)(C)C)cc2)c(CCC(=O)O)c1 [Compound 416] | – | – | 26 | 54 | Inhibition Rate of PAI-1 Activity (%) [6]: >99%; Inhibition Rate of PAI-1 Activity (%) [7]: >99%
CC(C)c1ccccc1Oc1cc(-c2ccc(OC(F)(F)F)cc2)ccc1OCC(=O)O [Compound 513] | 17 | 7 | 69 | >99 | –
CCCCCOc1cc(-c2ccc(OC(F)(F)F)cc2)ccc1N(CCCCc1ccccc1)CC(=O)O [Compound 643] | 0 | 18 | 38 | 92 | –
CCCCCOc1ccc(-c2cccc(OC(F)(F)F)c2)cc1N(CCCCc1ccccc1)C(=O)C(=O)O [Compound 391] | – | – | – | – | IC50: 780 nM
CCCCC(Oc1cc(Oc2ccc(OC(F)(F)F)cc2)ccc1OCCCCc1ccccc1)C(=O)O (stereo not shown) [Compound 309] | – | – | – | – | IC50 [1]: 660 nM
CCCCCCCCCOc1cc(-c2ccc(OC(F)(F)F)cc2)ccc1N(CCCCc1ccccc1)C(=O)C(=O)O [Compound 380] | – | – | – | – | IC50: < 100 nM; inhibition at 3 µM: > 99%
CCCCC(CC(=O)O)c1cc(-c2ccc(OC(F)(F)F)cc2)ccc1Oc1ccc(C(C)(C)C)cc1 (stereo not shown) [Compound 422] | 12 | 24 | 72 | >99 | –
CC(C)(C)c1ccc(Oc2ccc(Nc3ccc(OC(F)(F)F)cc3)cc2/C=C/C(=O)O)cc1 [Compound 431] | 0 | 0 | 77 | >99 | –
CCCCCOc1ccc(Oc2ccc(OC(F)(F)F)cc2)cc1N(CCCCc1ccccc1)C(=O)C(=O)O [Compound 363] | – | – | – | – | IC50: 830 nM; inhibition at 3 µM: > 99%
CC(C)(C)c1ccc(Oc2cc(OCC(=O)O)cc(-c3ccc(OC(F)(F)F)cc3)c2)cc1 [Compound 427] | 1 | 27 | 62 | 97 | –
CC(C)(C)c1ccc(Oc2ccc(-c3ccc(OC(F)(F)F)cc3)cc2N(CCCCc2ccccc2)C(=O)C(=O)O)cc1 [Compound 636] | 2 | 21 | 72 | 81 | –
CCCCCOc1ccc(-c2cccc(C)c2)cc1N(CCCCc1ccccc1)C(=O)C(=O)O [Compound 379] | – | – | – | – | IC50: 640 nM
CC(C)(C)c1ccc(Oc2cc(-c3ccc(C#N)cc3)ccc2OCC(=O)O)cc1 [Compound 471] | 5 | 7 | 11 | 49 | –
CCCCCCCOc1cc(-c2ccc(OC(F)(F)F)cc2)cc(OCCCCCCC)c1OCC(=O)O [Compound 425] | 17 | 54 | >99 | – | –
CC(C)(C)c1ccc(Oc2cc(-c3ccc(F)cc3)ccc2OCC(=O)O)cc1 [Compound 459] | 26 | 31 | 42 | 86 | –
CC(C)c1ccccc1Oc1cc(-c2ccc(OC(F)(F)F)cc2)ccc1CCC(=O)O [Compound 491] | 6 | 10 | 66 | >99 | –
CC(C)(C)c1cccc(Oc2ccc(-c3ccc(OC(F)(F)F)cc3)cc2/C=C/C(=O)O)c1 [Compound 437] | 0 | 12 | 67 | 98 | –
CC(C)(C)c1ccc(COc2ccc(-c3ccc(OC(F)(F)F)cc3)cc2C(=O)O)cc1 [Compound 421] | 0 | 3 | 14 | 81 | –
O=C(O)c1cc(-c2ccc(OC(F)(F)F)cc2)ccc1OCc1ccccc1 [Compound 401] | – | – | – | 15 | Inhibition Rate of PAI-1 Activity (%) [6]: 17%; Inhibition Rate of PAI-1 Activity (%) [7]: 53%

SMILES | Inhibition Rate of PAI-1 Activity (%) [2] [%] | Inhibition Rate of PAI-1 Activity (%) [3] [%] | Inhibition Rate of PAI-1 Activity (%) [4] [%] | Inhibition Rate of PAI-1 Activity (%) [5] [%] | other results
CC(C)(C)OCCOc1ccc(-c2ccc(OC(F)(F)F)cc2)cc1N(CCCCc1ccccc1)C(=O)C(=O)O [Compound 351] | – | – | – | – | IC50 [1]: 1950 nM
CCCCCCOc1cc(-c2ccc(OC(F)(F)F)cc2)ccc1OC(CCCCCC)C(=O)O (stereo not shown) [Compound 430] | 1 | 15 | 97 | >99 | –
CC(C)(C)c1ccc(Oc2cc(-c3ccc(OC(F)(F)F)cc3)ccc2C(=O)O)cc1 [Compound 434] | 14 | 8 | 66 | >99 | –
CC(C)c1ccc(Sc2cc(-c3ccc(OC(F)(F)F)cc3)ccc2/C=C/C(=O)O)cc1 [Compound 516] | 16 | 39 | 98 | >99 | –
CC(C)(C)c1cccc(Oc2cc(-c3ccc(OC(F)(F)F)cc3)ccc2CCC(=O)O)c1 [Compound 336] | – | – | – | – | IC50 [1]: 1080 nM; inhibition at 3 µM: > 99%
Cc1cccc(-c2ccc(OCC(=O)O)c(Oc3ccc(C(C)(C)C)cc3)c2)c1 [Compound 319] | – | – | – | – | IC50 [1]: 2100 nM
CCCCCCC(Oc1cc(-c2ccc(OC(F)(F)F)cc2)ccc1Oc1ccc(OC(F)(F)F)cc1)C(=O)O (stereo not shown) [Compound 326] | – | – | – | – | IC50 [1]: 330 nM
Cc1cc(C)cc(COc2ccc(-c3ccc(OC(F)(F)F)cc3)cc2N(CCCCc2ccccc2)C(=O)C(=O)O)c1 [Compound 662] | 18 | 28 | 98 | 95 | –
CCC(CC)Oc1ccc(-c2ccc(OCC(=O)O)c(Oc3ccc(C(C)(C)C)cc3)c2)cc1 [Compound 447] | 4 | 11 | 89 | >99 | –
CCCCOc1ccc(-c2ccc(OC(F)(F)F)cc2)cc1CCC(=O)O [Compound 407] | – | – | 14 | 41 | Inhibition Rate of PAI-1 Activity (%) [6]: >99%; Inhibition Rate of PAI-1 Activity (%) [7]: 98%
O=C(O)/C=C/c1cc(-c2ccc(OC(F)(F)F)cc2)ccc1OCCCCCOc1ccc(-c2ccc(OC(F)(F)F)cc2)cc1/C=C/C(=O)O [Compound 543] | 0 | 1 | 73 | 94 | –
CCCCCOc1cc(-c2ccc(OC(F)(F)F)cc2)ccc1N(CCCCc1ccccc1)C(=O)C(=O)O [Compound 367] | – | – | – | – | IC50: 900 nM
CC(C)(C)c1ccc(-c2ccc(OCC(=O)O)c(Oc3cccc(C(C)(C)C)c3)c2)cc1 [Compound 465] | 10 | 17 | 87 | 98 | –
CCCCOc1ccc(-c2ccc(OC(F)(F)F)cc2)cc1/C=C/C(=O)O [Compound 405] | – | – | 14 | 63 | Inhibition Rate of PAI-1 Activity (%) [6]: >99%; Inhibition Rate of PAI-1 Activity (%) [7]: 95%
CCCCC(Oc1cc(-c2ccc(OC(F)(F)F)cc2)ccc1OCc1ccc(C(C)(C)C)cc1)C(=O)O (stereo not shown) [Compound 313] | – | – | – | – | IC50 [1]: 980 nM
CCCCCCCCCCN(C(=O)C(=O)O)c1ccc(-c2ccc(OC(F)(F)F)cc2)cc1 [Compound 669] | 28 | 34 | >99 | >99 | –
CCCCCCOc1ccc(-c2ccc(OC(F)(F)F)cc2)cc1OC(CCCCCC)C(=O)O (stereo not shown) [Compound 429] | 7 | 9 | 93 | 95 | –
CC(C)(C)c1ccc(COc2cc(-c3ccc(OC(F)(F)F)cc3)ccc2OCC(=O)O)cc1 [Compound 304] | – | – | – | – | IC50 [1]: 1230 nM
CC(C)(C)c1ccc(Oc2cc(-c3ccc(C(C)(C)C)cc3)ccc2/C=C/C(=O)O)cc1 [Compound 495] | 8 | 64 | 98 | >99 | –
CC(C)(C)c1ccc(Oc2cc(-c3cc(Cl)ccc3Cl)ccc2/C=C/C(=O)O)cc1 [Compound 483] | 0 | 8 | 76 | >99 | –
O=C(O)CCc1ccc(-c2ccc(OC(F)(F)F)cc2)cc1OCCCOCc1ccccc1 [Compound 488] | 0 | 10 | 36 | 91 | –
